Experimental data taken from patent publication US20210238225A1, “PEPTIDOMIMETIC INHIBITORS OF THE PEPTIDYL-PROLYL CIS/TRANS ISOMERASE (PIN1)” (DANA-FARBER CANCER INSTITUTE, INC., priority 2018, published 2021).
Read-outs that look alike come from different tables or passages of the source. Non-standard residues stand in square brackets, D forms with d. Residues, ends and D or L forms follow the SMILES beside them. *: point of attachment. Bip = N[C@@H](Cc1ccc(-c2ccccc2)cc1)C(=O)O; Phe(4-F) = N[C@@H](Cc1ccc(F)cc1)C(=O)O; 2Nal = N[C@@H](Cc1ccc2ccccc2c1)C(=O)O; Met(O2) = CS(=O)(=O)CC[C@H](N)C(=O)O; Bta = N[C@@H](Cc1csc2ccccc12)C(=O)O; NMeY = CN[C@@H](Cc1ccc(O)cc1)C(=O)O; NH(4-Me-benzyl) = Cc1ccc(CN*)cc1; NMeF = CN[C@@H](Cc1ccccc1)C(=O)O; hPhe = N[C@@H](CCc1ccccc1)C(=O)O; β3hE = N[C@@H](CCC(=O)O)CC(=O)O; β3hF = N[C@H](CC(=O)O)Cc1ccccc1; Cit = NC(=O)NCCC[C@H](N)C(=O)O; aThr = C[C@H](O)[C@H](N)C(=O)O; Pip = O=C(O)[C@@H]1CCCCN1; Piperidide = C1CCN(*)CC1; X5 = Cc1ccc(CN(C)*)cc1; Acryloyl = C=CC(=O)*; NHcBu = C1CC(N*)C1; X6 = CC(Cl)C(=O)*; ClAc = O=C(CCl)*

Target: Pin1 (GST-Pin1) (Homo sapiens, UniProt Q13526)
Sequence (Q13526 whole entry): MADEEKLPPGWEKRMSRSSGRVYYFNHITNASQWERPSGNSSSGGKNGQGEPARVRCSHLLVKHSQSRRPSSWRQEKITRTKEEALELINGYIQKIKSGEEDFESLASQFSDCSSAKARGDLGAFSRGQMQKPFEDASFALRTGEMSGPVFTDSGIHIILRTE
Experiment: Fluorescence polarization (FP) assay, binding to Pin1
Details: competition with fluorescein-labeled peptide probe, 12 hours pre-incubation at 4° C., Kenakin Ki equation

SMILES | Ki (Ki, μM (FP Assay)) [µM] | Ki (read-out: Ki, μM (FP Assay)) [µM]
COC(=O)CC[C@H](NC(=O)CCl)C(=O)N1CCCC[C@H]1C(=O)N[C@@H](Cc1csc2ccccc12)C(=O)N[C@@H](Cc1ccc(F)cc1)C(=O)NCc1ccc(C)cc1 [Compound 11-22, Methyl (S)-5-((S)-2-(((S)-3-(benzo[b]thiophen-3-yl)-1-(((S)-3-(4-fluorophenyl)-1-((4-methylbenzyl)amino)-1-oxopropan-2-yl)amino)-1-oxopropan-2-yl)carbamoyl)piperidin-1-yl)-4-(2-chloroacetamido)-5-oxopentanoate] (ClAc-E(OMe)[Pip][Bta][Phe(4-F)]-{NH(4-Me-benzyl)}) | > 10 | –
C[C@H](O)[C@H](NC(=O)CCl)C(=O)N1CCCC[C@H]1C(=O)N[C@@H](Cc1c[nH]c2ccccc12)C(=O)N[C@@H](CCCNC(N)=O)C(N)=O [Compound 2-20, (S)—N—((S)-1-(((S)-1-Amino-1-oxo-5-ureidopentan-2-yl)amino)-3-(1H-indol-3-yl)-1-oxopropan-2-yl)-1-((2-chloroacetyl)-L-allothreonyl)piperidine-2-carboxamide] (ClAc-[aThr][Pip]W[Cit]-NH2) | – | 0.122
NC(=O)NCCC[C@H](NC(=O)[C@H](Cc1ccc2ccccc2c1)NC(=O)[C@@H]1CCCCN1C(=O)C[C@H](CCC(=O)O)NC(=O)CCl)C(N)=O [Compound 2-12, (S)-6-((S)-2-(((S)-1-(((S)-1-Amino-1-oxo-5-ureidopentan-2-yl)amino)-3-(naphthalen-2-yl)-1-oxopropan-2-yl)carbamoyl)piperidin-1-yl)-4-(2-chloroacetamido)-6-oxohexanoic acid] (ClAc-[β3hE][Pip][2Nal][Cit]-NH2) | – | 0.106
Cc1ccc(CNC(=O)[C@H](CCCNC(N)=O)NC(=O)[C@H](Cc2c[nH]c3ccccc23)NC(=O)[C@@H]2CCCCN2C(=O)[C@H](CCS(C)(=O)=O)NC(=O)CCl)cc1 [Compound 11-11, (S)—N—((S)-3-(1H-Indol-3-yl)-1-(((S)-1-((4-methylbenzyl)amino)-1-oxo-5-ureidopentan-2-yl)amino)-1-oxopropan-2-yl)-1-((S)-2-(2-chloroacetamido)-4-(methylsulfonyl)butanoyl)piperidine-2-carboxamide] (ClAc-[Met(O2)][Pip]W[Cit]-{NH(4-Me-benzyl)}) | – | 0.17
CC(=O)N[C@@H](CCC(=O)O)C(=O)N1CCCC[C@H]1C(=O)N[C@@H](Cc1ccc2ccccc2c1)C(=O)N[C@@H](CCCNC(N)=O)C(N)=O [Compound 2-19, (S)-4-Acetamido-5-((S)-2-(((S)-1-(((S)-1-amino-1-oxo-5-ureidopentan-2-yl)amino)-3-(naphthalen-2-yl)-1-oxopropan-2-yl)carbamoyl)piperidin-1-yl)-5-oxopentanoic acid] (Ac-E[Pip][2Nal][Cit]-NH2) | – | > 10
CN(C(=O)CCl)[C@@H](Cc1ccccc1)C(=O)N1CCCC[C@H]1C(=O)N[C@@H](Cc1c[nH]c2ccccc12)C(=O)N[C@@H](CCc1ccccc1)C(=O)N1CCCCC1 [Compound 11-44, (S)—N—((S)-3-(1H-Indol-3-yl)-1-oxo-1-(((S)-1-oxo-4-phenyl-1-(piperidin-1-yl)butan-2-yl)amino)propan-2-yl)-1-(N-(2-chloroacetyl)-N-methyl-L-phenylalanyl)piperidine-2-carboxamide] (ClAc-[NMeF][Pip]W[hPhe]-Piperidide) | – | 1.5
C=CC(=O)N[C@H](CC(=O)O)C(=O)N1CCCC[C@H]1C(=O)N[C@@H](Cc1ccc2ccccc2c1)C(=O)N[C@@H](CCC(N)=O)C(N)=O [Compound 2-34, (R)-3-Acrylamido-4-((S)-2-(((S)-1-(((S)-1,5-diamino-1,5-dioxopentan-2-yl)amino)-3-(naphthalen-2-yl)-1-oxopropan-2-yl)carbamoyl)piperidin-1-yl)-4-oxobutanoic acid] (Acryloyl-[dD][Pip][2Nal]Q-NH2) | – | > 10
N=C(N)NCCC[C@H](NC(=O)C[C@H](Cc1ccccc1)NC(=O)[C@@H]1CCCCN1C(=O)[C@H](CCC(=O)O)NC(=O)CCl)C(N)=O [Compound 2b-15, (S)-5-((S)-2-(((S)-4-(((S)-1-Amino-5-guanidino-1-oxopentan-2-yl)amino)-4-oxo-1-phenylbutan-2-yl)carbamoyl)piperidin-1-yl)-4-(2-chloroacetamido)-5-oxopentanoic acid] (ClAc-E[Pip][β3hF]R-NH2) | – | > 10
Cc1ccc(CNC(=O)[C@H](CCCNC(N)=O)NC(=O)[C@H](Cc2c[nH]c3ccccc23)NC(=O)[C@@H]2CCCCN2C(=O)[C@H](Cc2ccccc2)NC(=O)C(C)Cl)cc1 (stereo partly drawn) [Compound 11-34, (2S)—N—((S)-3-(1H-indol-3-yl)-1-(((S)-1-((4-methylbenzyl)amino)-1-oxo-5-ureidopentan-2-yl)amino)-1-oxopropan-2-yl)-1-((2-chloropropanoyl)-L-phenylalanyl)piperidine-2-carboxamide] (X6-F[Pip]W[Cit]-{NH(4-Me-benzyl)}) | – | > 10
Cc1ccc(CN(C)C(=O)[C@H](CCCNC(N)=O)NC(=O)[C@H](Cc2c[nH]c3ccccc23)NC(=O)[C@@H]2CCCCN2C(=O)[C@H](CCC(=O)O)NC(=O)CCl)cc1 [Compound 11-9, (S)-5-((S)-2-(((S)-3-(1H-Indol-3-yl)-1-(((S)-1-(methyl(4-methylbenzyl)amino)-1-oxo-5-ureidopentan-2-yl)amino)-1-oxopropan-2-yl)carbamoyl)piperidin-1-yl)-4-(2-chloroacetamido)-5-oxopentanoic acid] (ClAc-E[Pip]W[Cit]-X5) | – | 0.31
N=C(N)NCCC[C@H](NC(=O)[C@H](Cc1ccc(-c2ccccc2)cc1)NC(=O)[C@@H]1CCCCN1C(=O)[C@H](CCC(=O)O)NC(=O)CCl)C(N)=O [Compound 2b-9, (S)-5-((S)-2-(((S)-3-([1,1′-Biphenyl]-4-yl)-1-(((S)-1-amino-5-guanidino-1-oxopentan-2-yl)amino)-1-oxopropan-2-yl)carbamoyl)piperidin-1-yl)-4-(2-chloroacetamido)-5-oxopentanoic acid] (ClAc-E[Pip][Bip]R-NH2) | – | 0.19
COC(=O)CC[C@H](NC(=O)CCl)C(=O)N1CCCC[C@H]1C(=O)N[C@@H](Cc1ccc2ccccc2c1)C(=O)N[C@@H](CCCNC(N)=O)C(N)=O [Compound 2-18, Methyl (S)-5-((S)-2-(((S)-1-(((S)-1-amino-1-oxo-5-ureidopentan-2-yl)amino)-3-(naphthalen-2-yl)-1-oxopropan-2-yl)carbamoyl)piperidin-1-yl)-4-(2-chloroacetamido)-5-oxopentanoate] (ClAc-E(OMe)[Pip][2Nal][Cit]-NH2) | – | 0.14
NC(=O)NCCC[C@H](NC(=O)[C@H](Cc1c[nH]c2ccccc12)NC(=O)[C@@H]1CCCCN1C(=O)[C@H](Cc1ccccc1)NC(=O)CCl)C(=O)NC1CCC1 [Compound 11-37, (S)-1-((2-Chloroacetyl)-L-phenylalanyl)-N—((S)-1-(((S)-1-(cyclobutylamino)-1-oxo-5-ureidopentan-2-yl)amino)-3-(1H-indol-3-yl)-1-oxopropan-2-yl)piperidine-2-carboxamide] (ClAc-F[Pip]W[Cit]-NHcBu) | – | 0.026
COC(=O)CC[C@H](NC(=O)CCl)C(=O)N1CCCC[C@H]1C(=O)N[C@@H](Cc1c[nH]c2ccccc12)C(=O)N(C)[C@@H](Cc1ccc(O)cc1)C(N)=O [Compound 2-28, Methyl (S)-5-((S)-2-(((S)-1-(((S)-1-amino-3-(4-hydroxyphenyl)-1-oxopropan-2-yl)(methyl)-amino)-3-(1H-indol-3-yl)-1-oxopropan-2-yl)carbamoyl)piperidin-1-yl)-4-(2-chloroacetamido)-5-oxopentanoate] (ClAc-E(OMe)[Pip]W[NMeY]-NH2) | – | > 10
